# Legend:
# human NHE3 = target: T1, human NHE3 (Homo sapiens, UniProt P48764); experiment: NHE activity in PS 120 fibroblasts transfected with human NHE3 (BCECF pH change rate); assay type: cell-based
# T1 construct: expressed in transfected cells; host or cells: PS 120 NHE-deficient fibroblasts
# Experimental: The following describes the test used to determine that squalamine inhibits NHE3, but not NHE1 or NHE2. NHE deficient fibroblast cells (PS 120) transfected with an individual human NHE gene were loaded with a pH sensitive dye 2′7′-bis(2-carboxyethyl)-5,6-carboxyfluorescein (BCECF). NHE activity was measured by spectrofluorometric methods using this dye and by amiloride sensitive isotopic ^22Na^+cellular uptake. The cells were acidified by exposure to ammonium chloride in the absence of sodium to eliminate sodium and deactivate the proton pumps. The ammonium chloride was washed out by exposing the cells to tetramethyl ammonium chloride in bicarbonate free medium. […] Sodium then was added back at various concentrations (see the abscissa of FIGS. 5a and 5b) to drive the antiporters (human NHE3 in FIG. 5a and human NHE1 in FIG. 5b). The antiporters were driven at different rates, as evidenced by the cellular pH change rate, depending on the amount of sodium added.
# As noted above, it has been concluded that squalamine inhibits NHE3 and not NHE1. […] Such inhibitors affect only the absolute number of protons that can be secreted by the cell (i.e., “Vmax”), if one looks at the kinetic characteristics of the inhibition. […] Note the following Table 1, which correlates to data collected in the test of FIG. 5a.
# rabbit NHE3 = target: T2, rabbit NHE3 (Oryctolagus cuniculus, UniProt P26432); experiment: NHE activity, rabbit NHE3; assay type: cell-based; conditions: for decrease of Vmax of rabbit NHE3: 1 hour pretreatment
# T2 construct: expressed in transfected cells
# rabbit NHE1 = target: T3, rabbit NHE1 (Oryctolagus cuniculus, UniProt P23791); experiment: NHE activity, rabbit NHE1; assay type: cell-based; conditions: similar tests
# T3 construct: expressed in transfected cells
# rabbit NHE2 = target: T4, rabbit NHE2 (Oryctolagus cuniculus, UniProt P50482); experiment: NHE activity, rabbit NHE2; assay type: cell-based; conditions: similar tests
# T4 construct: expressed in transfected cells
# [1] = Pharmacokinetic study, half-life; conditions: in vivo
# Experimental: A pharmacokinetic study of squalamine was performed to ascertain the residence time of squalamine in the body. FIGS. 6a to 6c illustrate the test results where squalamine was administered subcutaneously (50 mg/kg, FIG. 6a), intraperitoneally (dose 240 μg; 10 mg/kg, FIG. 6b), and intravenously (10 mg/kg, FIG. 6c).
# H460 = H460 lung tumor xenograft with carboplatin; assay type: in vivo, nude BALBc mice; conditions: carboplatin 60 mg/kg i.p. single dose, squalamine 20 mg/kg once daily for 5 days
# Experimental: About 5×10^6 cells from each of two human lung tumor lines, H460 (a rapidly proliferating large cell carcinoma cell line, ATCC HTB-177) and Calu-6 (an anaplastic carcinoma, ATCC HTB-56), were inoculated subcutaneously in the right foreleg of nude BALBc mice. Once tumors were visible (3-5 days) with a mean volume of approximately 50-80 mm^3, mice were treated intraperitoneally with 60 mg/kg carboplatin (single dose) or 20 mg/kg/squalamine (once daily for 5 days) or a combination of carboplatin and squalamine. There were 8 mice per group. Tumor growth inhibition was scored by quantifying the size of tumors once control tumors reached a size of 1.0 gram and determining the ratio of mean treated tumor size to mean control tumor size (T/C). Tumor growth inhibition was then scored as 100% x [1-(T/C)]. A separate antitumor activity variable, tumor growth delay, was scored for the tumors by determining the length of time it required for the mean tumor size in a treatment group to reach a size of 500 mm^3 (B. A. Teicher et al., Anticancer Research 18, 2567-2574 (1998)). The tumor growth inhibition seen with carboplatin plus squalamine was greater than that seen with carboplatin or squalamine alone. The relative inactivity of squalamine as a single agent by this assay endpoint supports the idea that squalamine is synergistic with carboplatin in the inhibition of these two human lung tumor xenografts. Similarly, it was determined that squalamine enhanced the tumor growth delay caused by carboplatin by an enhancement factor of >2.3 (Table 7).
# [2] = tested on: Syngeneic mammary carcinoma MCA-4 tumor cells; experiment: MCA-4 mammary carcinoma tumor growth delay with radiation; assay type: in vivo, C3Hf/Kam male mice
# Experimental: Syngeneic mammary carcinoma MCA-4 tumor cells (5×10^5) were injected intramuscularly into the right legs of C3Hf/Kam male mice (4 months of age). When the tumors reached 6 mm in diameter, the mice were randomly assigned to receive: (a) no treatment, (b) squalamine alone (20 mg/kg/day b.i.d. for 11-14 days), (c) 15 Gy of gamma irradiation, or (d) squalamine plus 15 Gy of gamma rays. Tumor growth was followed until tumors reached at least 12 mm in diameter. The effect of squalamine on tumor radioresponse was determined by absolute and normalized tumor growth delays (AGD and NGD). AGD is defined as the time in days for tumors treated with radiation (or squalamine) to grow from 8 to 12 mm minus the time in days for untreated tumors to grow from 8-12 mm. NGD is defined as the time in days for tumors treated with both squalamine and radiation to grow from 8 to 12 mm minus the time in days for tumors treated with squalamine only to grow from 8 to 12 mm. An enhancement factor (EF) was determined as the ratio of NGD to AGD. The EF for squalamine with 15 Gy gamma rays calculated from the observed times for tumor growth (Table 8) is >1.5.
# NHE1 = NHE1 (Homo sapiens, UniProt P19634); experiment: NHE1 activity in unstimulated melanoma cells; assay type: cell-based; design: endogenous in cells
# Experimental: The effect of squalamine on NHE activity was measured to determine which isoforms of NHE were affected by squalamine. NHE activity can be measured under various different cellular conditions. Acid loading a cell activates all of the antiporters and permits measurement of NHE. NHE activity also can be measured after growth factor stimulation of the cell. Additionally, the NHE activity can be measured when the cell is in an unstimulated state, because the antiporters, even if unstimulated, continue to function at a slow, but non-zero rate. In each of these cellular conditions, NHE activity usually is measured in the absence of bicarbonate.
# NHE3 in particular is relatively resistant to inhibition by the amilorides.
# T2 sequence (P26432 30-832): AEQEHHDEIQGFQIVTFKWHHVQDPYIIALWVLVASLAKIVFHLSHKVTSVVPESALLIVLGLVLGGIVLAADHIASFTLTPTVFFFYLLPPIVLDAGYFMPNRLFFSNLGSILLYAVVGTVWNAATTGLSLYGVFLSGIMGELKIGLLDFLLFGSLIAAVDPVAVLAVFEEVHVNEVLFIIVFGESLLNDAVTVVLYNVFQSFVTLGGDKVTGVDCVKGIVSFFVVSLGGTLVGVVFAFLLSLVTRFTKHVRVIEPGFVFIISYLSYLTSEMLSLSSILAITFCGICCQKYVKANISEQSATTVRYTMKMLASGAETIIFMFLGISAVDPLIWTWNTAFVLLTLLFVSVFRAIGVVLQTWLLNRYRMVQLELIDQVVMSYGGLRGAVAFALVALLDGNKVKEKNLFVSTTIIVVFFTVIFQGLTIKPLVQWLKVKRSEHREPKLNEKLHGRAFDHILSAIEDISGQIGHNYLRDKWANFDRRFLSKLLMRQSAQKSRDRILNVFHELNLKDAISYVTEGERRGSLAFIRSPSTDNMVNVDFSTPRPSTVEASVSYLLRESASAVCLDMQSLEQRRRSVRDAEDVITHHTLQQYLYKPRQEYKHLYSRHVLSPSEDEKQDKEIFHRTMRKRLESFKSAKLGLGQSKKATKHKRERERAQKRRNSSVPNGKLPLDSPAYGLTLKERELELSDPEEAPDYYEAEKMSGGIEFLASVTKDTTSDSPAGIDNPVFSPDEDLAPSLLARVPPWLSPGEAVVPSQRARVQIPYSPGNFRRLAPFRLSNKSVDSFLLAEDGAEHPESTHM
# T1 sequence (P48764 26-834): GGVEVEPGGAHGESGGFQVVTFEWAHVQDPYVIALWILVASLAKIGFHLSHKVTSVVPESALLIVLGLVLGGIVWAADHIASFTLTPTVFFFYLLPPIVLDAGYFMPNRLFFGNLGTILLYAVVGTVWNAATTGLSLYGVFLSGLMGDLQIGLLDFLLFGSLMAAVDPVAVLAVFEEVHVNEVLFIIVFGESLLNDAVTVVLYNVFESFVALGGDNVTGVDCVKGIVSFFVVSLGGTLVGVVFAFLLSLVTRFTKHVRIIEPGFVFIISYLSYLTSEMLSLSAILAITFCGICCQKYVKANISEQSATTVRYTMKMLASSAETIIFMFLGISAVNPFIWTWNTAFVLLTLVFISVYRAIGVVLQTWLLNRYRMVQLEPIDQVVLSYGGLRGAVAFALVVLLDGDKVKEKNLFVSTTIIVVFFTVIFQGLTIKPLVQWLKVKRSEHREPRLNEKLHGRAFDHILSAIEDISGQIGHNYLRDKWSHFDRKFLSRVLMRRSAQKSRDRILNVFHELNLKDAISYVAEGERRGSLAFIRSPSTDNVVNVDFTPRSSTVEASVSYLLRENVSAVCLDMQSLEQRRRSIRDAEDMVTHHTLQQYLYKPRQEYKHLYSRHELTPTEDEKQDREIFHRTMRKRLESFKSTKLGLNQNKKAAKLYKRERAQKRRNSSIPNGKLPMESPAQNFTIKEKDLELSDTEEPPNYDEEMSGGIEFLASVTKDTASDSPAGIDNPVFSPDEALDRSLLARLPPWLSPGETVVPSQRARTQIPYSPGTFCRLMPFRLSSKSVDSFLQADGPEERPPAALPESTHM
# NHE1, sequence (P19634 whole entry, species assumed, canonical isoform): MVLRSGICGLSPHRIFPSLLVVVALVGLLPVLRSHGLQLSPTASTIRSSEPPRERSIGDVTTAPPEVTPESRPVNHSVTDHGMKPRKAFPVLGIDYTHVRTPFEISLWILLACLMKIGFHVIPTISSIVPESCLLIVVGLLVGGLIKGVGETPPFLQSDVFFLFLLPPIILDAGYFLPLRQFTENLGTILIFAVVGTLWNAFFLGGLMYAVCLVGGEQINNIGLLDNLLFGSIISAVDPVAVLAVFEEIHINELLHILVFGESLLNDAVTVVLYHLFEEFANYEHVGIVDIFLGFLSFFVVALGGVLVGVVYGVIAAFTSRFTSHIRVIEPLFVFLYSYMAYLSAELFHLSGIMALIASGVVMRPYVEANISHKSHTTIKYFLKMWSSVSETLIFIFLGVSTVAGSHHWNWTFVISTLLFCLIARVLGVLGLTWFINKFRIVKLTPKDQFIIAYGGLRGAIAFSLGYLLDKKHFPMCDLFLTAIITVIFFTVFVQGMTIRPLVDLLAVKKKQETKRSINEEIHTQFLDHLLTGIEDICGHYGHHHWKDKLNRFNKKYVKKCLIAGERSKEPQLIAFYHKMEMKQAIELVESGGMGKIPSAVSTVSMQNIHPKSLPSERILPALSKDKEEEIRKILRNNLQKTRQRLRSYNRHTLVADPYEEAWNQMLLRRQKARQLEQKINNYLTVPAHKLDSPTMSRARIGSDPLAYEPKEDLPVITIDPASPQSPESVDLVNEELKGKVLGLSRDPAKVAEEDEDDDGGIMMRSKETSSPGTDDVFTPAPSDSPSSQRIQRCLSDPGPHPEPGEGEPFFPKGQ
# T3 sequence (P23791 whole entry): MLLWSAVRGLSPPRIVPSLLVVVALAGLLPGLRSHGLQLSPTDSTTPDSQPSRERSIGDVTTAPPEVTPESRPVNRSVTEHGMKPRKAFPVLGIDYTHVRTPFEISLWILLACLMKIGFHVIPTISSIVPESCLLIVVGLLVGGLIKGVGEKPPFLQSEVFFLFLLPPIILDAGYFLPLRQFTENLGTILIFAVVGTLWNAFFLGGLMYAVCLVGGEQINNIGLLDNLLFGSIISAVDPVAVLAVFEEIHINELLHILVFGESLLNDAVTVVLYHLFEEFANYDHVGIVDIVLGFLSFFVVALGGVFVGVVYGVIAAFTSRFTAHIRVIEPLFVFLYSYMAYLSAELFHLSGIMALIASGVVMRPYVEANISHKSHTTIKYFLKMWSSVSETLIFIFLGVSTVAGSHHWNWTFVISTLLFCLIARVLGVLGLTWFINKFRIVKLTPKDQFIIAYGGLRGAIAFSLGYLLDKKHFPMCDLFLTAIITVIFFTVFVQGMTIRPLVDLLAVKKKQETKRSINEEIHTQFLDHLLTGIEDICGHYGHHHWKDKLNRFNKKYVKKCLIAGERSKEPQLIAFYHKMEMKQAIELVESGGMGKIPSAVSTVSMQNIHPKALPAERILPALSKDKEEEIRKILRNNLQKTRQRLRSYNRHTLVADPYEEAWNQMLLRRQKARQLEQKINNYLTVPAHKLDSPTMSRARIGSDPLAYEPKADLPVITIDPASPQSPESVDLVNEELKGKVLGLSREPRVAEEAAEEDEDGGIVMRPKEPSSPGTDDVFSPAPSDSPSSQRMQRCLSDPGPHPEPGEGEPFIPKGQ
# T4 sequence (P50482 whole entry): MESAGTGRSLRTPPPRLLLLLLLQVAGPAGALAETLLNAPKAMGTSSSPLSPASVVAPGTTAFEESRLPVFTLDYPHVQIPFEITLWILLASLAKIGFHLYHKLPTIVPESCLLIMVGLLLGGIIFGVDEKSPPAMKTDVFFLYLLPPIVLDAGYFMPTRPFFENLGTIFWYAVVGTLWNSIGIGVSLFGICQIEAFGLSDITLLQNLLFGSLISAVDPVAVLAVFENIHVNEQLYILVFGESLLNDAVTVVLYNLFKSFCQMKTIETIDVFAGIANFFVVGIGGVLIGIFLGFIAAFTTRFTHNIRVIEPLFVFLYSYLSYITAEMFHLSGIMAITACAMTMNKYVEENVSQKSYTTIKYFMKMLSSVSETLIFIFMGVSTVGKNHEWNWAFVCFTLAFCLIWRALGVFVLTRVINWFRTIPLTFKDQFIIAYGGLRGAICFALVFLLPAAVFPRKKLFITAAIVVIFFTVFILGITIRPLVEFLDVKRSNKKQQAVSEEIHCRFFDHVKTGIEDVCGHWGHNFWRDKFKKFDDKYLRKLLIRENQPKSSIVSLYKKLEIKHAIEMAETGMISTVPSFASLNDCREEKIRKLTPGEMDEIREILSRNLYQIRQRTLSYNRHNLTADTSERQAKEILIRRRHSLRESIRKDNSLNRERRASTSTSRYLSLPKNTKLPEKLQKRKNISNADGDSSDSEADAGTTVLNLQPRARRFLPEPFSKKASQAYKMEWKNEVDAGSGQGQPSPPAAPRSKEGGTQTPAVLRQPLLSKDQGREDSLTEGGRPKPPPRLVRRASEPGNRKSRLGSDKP
structure (smiles),measurement,setting,value
"CC(C)[C@@H](CC[C@@H](C)[C@H]1CC[C@H]2[C@@H]3[C@H](O)C[C@H]4C[C@@H](NCCCNCCCCN)CC[C@]4(C)[C@H]3CC[C@]12C)OS(=O)(=O)O [Squalamine, squalamine]",effect on human NHE3 antiporter (pH change rate),"human NHE3; 7 μg/ml squalamine, acid loaded cells",inhibits human NHE3
same,time before NHE3 inhibition effect was observed,human NHE3; transfected cells,at least 30 minutes
same,time dependence of effect on Vmax,rabbit NHE3,maximum effect occurring at one hour exposure
same,decrease of Vmax of rabbit NHE3,rabbit NHE3; 1 μg squalamine/ml,13%
same,decrease of Vmax of rabbit NHE3,rabbit NHE3; 5 μg squalamine/ml,47%
same,decrease of Vmax of rabbit NHE3,rabbit NHE3; 7 μg squalamine/ml,57%
same,reversibility of effect on Vmax,rabbit NHE3; after removing the cells from the medium,fully reversible within three hours
same,effect on rabbit NHE3,rabbit NHE3; similar tests,inhibited
same,effect on rabbit NHE1,rabbit NHE1,not affected
same,effect on rabbit NHE2,rabbit NHE2,not affected
same,half-life,"[1]; ip, intraperitoneally, dose 240 μg, 10 mg/kg",2.87 h
same,half-life,"[1]; iv, intravenously, 10 mg/kg",0.583 h
same,half-life,"[1]; sc, subcutaneously, 50 mg/kg",5.6 h
same,Tumor Growth Inhibition (T/C),H460,6%
same,AGD,[2]; absolute tumor growth delay,0 days
same,Time to Grow From 8 to 12 mm,"[2]; squalamine 20 mg/kg/day b.i.d. for 11-14 days, 15 Gy gamma irradiation",6 days
same,NHE1 activity in unstimulated melanoma cells,NHE1,substantially down regulates the activity of the antiporter
